Measurements from ChEMBL document CHEMBL1201862, “PubChem BioAssay data set” (2004).
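All cell lines were grown in 96-well plates and treated with compound for 48 hours. Here, GI50 denotes the concentration required for 50% inhibition of growth.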 Activity calls are given as the source filed them. Rule as the data show it: active = GI50 up to about 1.1 µM and inactive = higher.

Legend:
Test in all cases: inhibition of tumour cell growth, NCI panel, 48 h
OVCAR-4 = system: OVCAR-4
K562 = system: K562
HOP-62 = system: HOP-62
SF-539 = system: SF-539
NCI-H226 = system: NCI-H226
RXF 393 = system: RXF 393
TK-10 = system: TK-10
OVCAR-8 = system: OVCAR-8
HCT-15 = system: HCT-15
DMS-114 = system: DMS-114
CCRF-CEM = system: CCRF-CEM
HOP-92 = system: HOP-92
HCC 2998 = system: HCC 2998
RXF 631 = system: RXF 631
IGROV-1 = system: IGROV-1
DMS-273 = system: DMS-273
UACC-257 = system: UACC-257
HCT-116 = system: HCT-116
NCI-H23 = system: NCI-H23
HL-60 = system: HL-60
OVCAR-5 = system: OVCAR-5
HOP-18 = system: HOP-18
SK-OV-3 = system: SK-OV-3
KM12 = system: KM12
A549 = system: A549
Malme-3M = system: Malme-3M
MOLT-4 = system: MOLT-4
SF-295 = system: SF-295
CAKI-1 = system: CAKI-1
SNB-78 = system: SNB-78
HT-29 = system: HT-29
SK-MEL-2 = system: SK-MEL-2
SF-268 = system: SF-268
NCI-H460 = system: NCI-H460
M14 = system: M14
OVCAR-3 = system: OVCAR-3
U-251 = system: U-251
SW-620 = system: SW-620
SK-MEL-5 = system: SK-MEL-5
LXFL 529 = system: LXFL 529
SN12C = system: SN12C
LOX IMVI = system: LOX IMVI
786-0 = system: 786-0
SNB-19 = system: SNB-19
KM-20L2 = system: KM-20L2
COLO 205 = system: COLO 205
DLD-1 = system: DLD-1
UACC-62 = system: UACC-62
UO-31 = system: UO-31
EKVX = system: EKVX
ACHN = system: ACHN
SK-MEL-28 = system: SK-MEL-28

Cc1ccccc1NC(=O)c1cc(-c2ccc([N+](=O)[O-])cc2)nc(S)n1
GI50 (OVCAR-4): > 100 µM (inactive) | GI50 (K562): > 100 µM (inactive) | GI50 (HOP-62): > 100 µM (inactive) | GI50 (SF-539): > 100 µM (inactive) | GI50 (NCI-H226): > 100 µM (inactive) | GI50 (RXF 393): > 100 µM (inactive) | GI50 (TK-10): > 100 µM (inactive) | GI50 (OVCAR-8): > 100 µM (inactive) | GI50 (HCT-15): > 100 µM | GI50 (DMS-114): > 100 µM (inactive) | GI50 (CCRF-CEM): > 10 µM (inactive) | GI50 (HOP-92): > 100 µM (inactive) | GI50 (HCC 2998): > 100 µM (inactive) | GI50 (RXF 631): > 100 µM (inactive) | GI50 (IGROV-1): > 100 µM (inactive) | GI50 (DMS-273): > 100 µM (inactive) | GI50 (UACC-257): > 100 µM (inactive) | GI50 (HCT-116): > 100 µM (inactive) | GI50 (NCI-H23): > 100 µM (inactive) | GI50 (HL-60): > 100 µM (inactive) | GI50 (OVCAR-5): > 100 µM (inactive) | GI50 (HOP-18): > 100 µM (inactive) | GI50 (SK-OV-3): > 100 µM (inactive) | GI50 (KM12): > 100 µM (inactive) | GI50 (A549): > 100 µM (inactive) | GI50 (Malme-3M): > 100 µM (inactive) | GI50 (MOLT-4): > 100 µM (inactive) | GI50 (SF-295): > 100 µM (inactive) | GI50 (CAKI-1): > 100 µM (inactive) | GI50 (SNB-78): > 100 µM (inactive) | GI50 (HT-29): > 100 µM (inactive) | GI50 (SK-MEL-2): > 100 µM (inactive) | GI50 (SF-268): > 100 µM (inactive) | GI50 (NCI-H460): > 100 µM (inactive) | GI50 (M14): > 100 µM (inactive) | GI50 (OVCAR-3): > 100 µM (inactive) | GI50 (U-251): > 100 µM (inactive) | GI50 (SW-620): > 100 µM (inactive) | GI50 (SK-MEL-5): > 100 µM (inactive) | GI50 (LXFL 529): > 100 µM (inactive) | GI50 (SN12C): > 100 µM (inactive) | GI50 (LOX IMVI): > 100 µM (inactive) | GI50 (786-0): > 100 µM (inactive) | GI50 (SNB-19): > 100 µM (inactive) | GI50 (KM-20L2): > 100 µM (inactive) | GI50 (COLO 205): > 100 µM (inactive) | GI50 (DLD-1): > 100 µM (inactive) | GI50 (UACC-62): > 100 µM (inactive) | GI50 (UO-31): > 100 µM (inactive) | GI50 (EKVX): > 100 µM (inactive) | GI50 (ACHN): > 100 µM (inactive) | GI50 (SK-MEL-28): > 100 µM (inactive)
